Experiment [1] concerns the target T1, human orexin type 2 receptor (Homo sapiens, UniProt O43614).
T1 construct: expressed in transfected cells
T1 sequence (O43614 1-444): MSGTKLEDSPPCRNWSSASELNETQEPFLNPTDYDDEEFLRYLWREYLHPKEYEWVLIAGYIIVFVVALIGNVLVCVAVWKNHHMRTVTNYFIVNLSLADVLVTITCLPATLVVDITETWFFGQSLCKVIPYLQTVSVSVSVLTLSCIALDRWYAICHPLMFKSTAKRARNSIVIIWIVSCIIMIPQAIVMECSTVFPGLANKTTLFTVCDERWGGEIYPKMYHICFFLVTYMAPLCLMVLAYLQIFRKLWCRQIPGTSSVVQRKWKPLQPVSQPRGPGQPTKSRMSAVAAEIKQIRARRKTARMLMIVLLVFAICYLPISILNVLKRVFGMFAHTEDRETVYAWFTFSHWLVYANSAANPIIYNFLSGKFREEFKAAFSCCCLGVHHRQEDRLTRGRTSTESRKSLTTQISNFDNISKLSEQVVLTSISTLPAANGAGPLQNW
As to the kind of experiment: Measurement of orexin type 2 receptor agonist activity (calcium fluorescence, CHO cells forcibly expressing human OX2 receptor). Format: cell-based. As to conditions: compound at 3 μM, DMSO = 0%, orexin A (human) 10 nM = 100%. The method, boiled down:
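Agonism measured as Fluo-4 calcium fluorescence in CHO-K1 cells stably expressing human OX2 receptor, loaded 30 min at 37° C then 30 min at room temperature with probenecid. Signal recorded about 2 min 40 sec after compound; activity (%) normalised to DMSO (0%) and 10 nM human orexin A (100%).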

In a further experiment the test system is SD rats. As to the kind of experiment: Evaluation of wake-promoting effects in SD rats (EEG/EMG). The experiment is classed as in vivo, rat. The settings on record: s.c., at ZT5, 3 hr after administration. The procedure:
The wake-promoting effects were evaluated by measuring the electroencephalogram (EEG) and electromyogram (EMG) in SD rats (Crl:CD(SD), CHARLES RIVER LABORATORIES JAPAN, Kanagawa, Japan.) using chronic experiment telemetry automatic measurement system (PhysioTel® and PONEMAH™, Data Sciences International Inc., Minnesota, U.S.A.). Under pentobarbital sodium anesthesia (50 mg/kg, intraperitoneal, Somnopentyl®, Kyoritsu Seiyaku, Tokyo, Japan), […] male SD rats were surgically implanted with a transmitter. Bilateral EEG leads were positioned at the parietal area in contact with the dura and fixed to the cranium with dental cement. Bilateral EMG leads were fixed to the back cervical muscles. The transmitter was implanted under the skin of the back, and the head skin was sutured. After recovery for at least 1 week, the cortical EEG and EMG signals in SD rats were recorded using a high-end data acquisition and real-time analysis system (PONEMAH™). The signals were automatically scored in 4 sec epochs by a sleep scoring system (SleepSign®, Kissei Comtec Co., Ltd.). Test compound (1 or 10 mg/kg, Table 3) dissolved in a mixed solution containing 10% DMSO, 10% Cremophor EL, 20% PEG400 and 60% H2O, or vehicle (i.e., a mixed solution containing 10% DMSO, 10% Cremophor EL, 20% PEG400 and 60% H2O) was administered subcutaneously (s.c.) to the SD rats at zeitgeber time (ZT) 5 (when the start time of the light cycle was ZT0) in a volume of 5 mL/kg. The EEG and EMG recordings were performed for 3 hr after the compound administration. The time spent in wakefulness for 3 hr after administration (% of vehicle treatment) was calculated by using SleepSign.

For `CCCC1CCC(OCC2C(NS(=O)(=O)C3CC3)CCc3ccc(C)c(=O)n32)CC1` [Example 78, rel-N-[(3S,4R)-7-methyl-6-oxo-4-({[(1r,4S)-4-propylcyclohexyl]oxy}methyl)-1,3,4,6-tetrahydro-2H-quinolizin-3-yl]cyclopropanesulfonamide], the “OX2R agonist activity (3 μM, %)” value in experiment [1] was 88%. In addition, the “Wakefulness time (% of vehicle treatment) (Mean, n = 2)” value with SD rats (1 mg/kg) is recorded as 130.53 % of vehicle treatment.
Taken in the same sequence, the figures for `Cc1ccc2n(c1=O)C(COC1CCC(C3CC3)CC1)C(NS(C)(=O)=O)CC2` [Example 111, rel-N-[(3S,4R)-4-({[(1s,4S)-4-cyclopropylcyclohexyl]oxy}methyl)-7-methyl-6-oxo-1,3,4,6-tetrahydro-2H-quinolizin-3-yl]methanesulfonamide] were 98% and 126.37 % of vehicle treatment.
For the molecule `CC#CC1CCC(OCC2C(NS(C)(=O)=O)CCc3ccc(C)c(=O)n32)CC1` [Example 146, rel-N-[(3S,4R)-7-methyl-6-oxo-4-({[(1s,4S)-4-(prop-1-yn-1-yl)cyclohexyl]oxy}methyl)-1,3,4,6-tetrahydro-2H-quinolizin-3-yl]methanesulfonamide], the “OX2R agonist activity (3 μM, %)” value in experiment [1] was determined as 104%. Moreover, the “Wakefulness time (% of vehicle treatment) (Mean, n = 2)” value in the experiment on SD rats (10 mg/kg) was 166.75 % of vehicle treatment.

The record behind these values is patent US12448377B2, “Heterocyclic compound” (Takeda Pharmaceutical Company Limited, priority 2019, dated 2025).
